Columns and labels:
MRGPRX2 receptor = biological target: T1, MRGPRX2 receptor (Homo sapiens, UniProt Q96LB1); test: Fluo-4 calcium assay in MRGPRX2 expressing Chem-1 cells; type: cell-based; conditions: Chem-1 cells, Fluo-4
T1 construct: host or cells: Chem-1 cells (G418-selected)
T1 sequence (Q96LB1 1-330): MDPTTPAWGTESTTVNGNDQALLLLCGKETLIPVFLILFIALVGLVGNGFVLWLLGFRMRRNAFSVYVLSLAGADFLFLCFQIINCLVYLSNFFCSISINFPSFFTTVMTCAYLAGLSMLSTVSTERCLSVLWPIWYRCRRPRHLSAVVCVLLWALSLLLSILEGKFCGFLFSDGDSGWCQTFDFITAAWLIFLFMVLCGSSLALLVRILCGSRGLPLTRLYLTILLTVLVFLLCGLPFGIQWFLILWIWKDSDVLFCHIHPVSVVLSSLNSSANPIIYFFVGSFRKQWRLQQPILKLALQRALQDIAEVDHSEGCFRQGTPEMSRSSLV

[1] = system: control (non-MRGPRX2 expressing) Chem-1 cells; conditions: parent Chem-1 cells, Fluo-4
Procedure: MRGPRX2 expressing and control (non-MRGPRX2 expressing) Chem-1 cells lines were obtained from Discovery Services, EuroFins. Cells were cultured in Dulbecco's Modified Eagle Medium (DMEM) high glucose medium (4.5 g/L) with 10% fetal bovine serum (FBS), non-essential amino acids, and N-2-hydroxyethylpiperazine-N′-2-ethanesulfonic acid (HEPES) buffer (pH 7.0-7.6). Geneticin (G418) was used for selection of MRGPRX2-expressing Chem-1 cells. Cells were maintained at 37° C. at 5% CO2. Cells were seeded to a glass bottom 96-well plates at a density of 50,000 per well (Cellvis). Cells were loaded with Fluo-4 AM for 30 minutes at 37° C. at a concentration of 2.5 μM. Cells were washed once with Dulbecco's phosphate buffered saline (DPBS). Cells were rested at room temperature for 30 minutes before use and washed with DPBS. Cells were resuspended in 50 μl phosphate buffered saline (PBS) with calcium and magnesium. […] Plates were read immediately with a Biotek plate reader. Readings were taken every 6 seconds for 2 minutes.

C[C@H](CCC(=O)O)C[C@H](C)C[C@H](C)C(=O)/C=C(\O)[C@H](C)C[C@H](C)C/C=C/[C@@H](C)[C@@H](O)[C@@H](C)[C@@H](O)C[C@@H]1CC[C@@](C)([C@H]2CC[C@@](C)([C@@H](C)O)O2)O1 [Ionomycin]
activation of the MRGPRX2 expressing cells (calcium mobilization) (MRGPRX2 receptor): generates a calcium response
effect on cells lacking the MRGPRX2 receptor (calcium mobilization) [1]: generates a calcium response

— US20240299486A1, “ADDRESSING INJECTION SITE REACTIONS ASSOCIATED WITH THE ADMINISTRATION OF ELAMIPRETIDE” (STEALTH BIOTHERAPEUTICS INC., priority 2022, published 2024)
